In ChEMBL document CHEMBL1137996, “Design, synthesis, and activity of 4-quinolone and pyridone compounds as nonthiol-containing farnesyltransferase inhibitors” (Bioorg Med Chem Lett, 2004):

Assays:
[1] = target: T1, Protein farnesyltransferase (Mus musculus, UniProt Q61239+Q8K2I1); assay: Inhibition of Ras farnesylation in H-Ras transformed NIH3T3 cells at 100 nM; type: functional, cell-based
[2] = target: Protein farnesyltransferase (Bos taurus, UniProt P29702+P49355); assay: Inhibition of Bovine farnesyltransferase (FTase); type: protein-complex assay
[3] = target: Geranylgeranyl transferase type I (Bos taurus, UniProt P29702+Q5EAD5); assay: Inhibition of Bovine geranylgeranyltransferase (GGT); type: protein-complex assay
[4] = target: T1, Protein farnesyltransferase; assay: Inhibition of Ras farnesylation in H-Ras transformed NIH3T3 cells; type: functional, cell-based

## Cn1cncc1C(OCc1cc(=O)c(C#N)cn1-c1cccc(Cl)c1)c1ccc(C#N)cc1 (stereo unspecified)
[1]; nih3t3
  Inhibition: 4%
[2]
  IC50: 12 nM
[3]
  IC50: > 10000 nM

## Cn1cncc1[C@@](N)(c1ccc(Cl)cc1)c1ccc2c(c1)c(-c1cccc(Cl)c1)cc(=O)n2C [TIPIFARNIB]
[4]; nih3t3
  EC50: 1.6 nM

## Cn1cncc1C(O)(c1ccc(Cl)cc1)c1ccc2c(=O)c(C#N)cn(-c3cccc(Cl)c3)c2c1 (stereo unspecified)
[1]
  Inhibition: 51%
[2]
  IC50: 12 nM
[3]
  IC50: 16000 nM

## NC(=O)N1CCC(CC(=O)N2CCC([C@H]3c4ncc(Br)cc4CCc4cc(Cl)cc(Br)c43)CC2)CC1 [LONAFARNIB]
[2]
  IC50: 8.3 nM
[3]
  IC50: > 10000 nM
[4]
  EC50: 100 nM

## Cn1cncc1C(NC(=O)c1cn(C)c(=O)cc1-c1cccc(Cl)c1)c1ccc(C#N)cc1 (stereo unspecified)
[2]
  IC50: 685 nM

## N#Cc1ccc(Cn2cncc2CNCc2cc(=O)c(C#N)cn2-c2cccc(Cl)c2)cc1
[2]
  IC50: 7.9 nM
[3]
  IC50: > 10000 nM

## Cn1c(CNCc2cncn2Cc2ccc(C#N)cc2)c(-c2cccc(Cl)c2)cc(C#N)c1=O
[1]
  Inhibition: 21%
[2]
  IC50: 17 nM
[3]
  IC50: > 10000 nM
